Measured values from US9458095B2, “Oligo-benzamide compounds and their use in treating cancers” (The Board of Regents of the University of Texas System, priority 2011, dated 2016).
“Also recorded” adds a separate entry of the source.

Key:
Assay type in all cases: cell-based
ARwt = target: T1, ARwt (Homo sapiens, UniProt P10275); assay: ARE-luciferase reporter in PC-3 cells expressing ARwt; conditions: 1 nM DHT, 100 nM peptidomimetic, 48 h
T1 construct: expressed in transfected cells; host or cells: PC-3 cells (A3); M12 cells (A8)
T1 sequence (P10275 1-920): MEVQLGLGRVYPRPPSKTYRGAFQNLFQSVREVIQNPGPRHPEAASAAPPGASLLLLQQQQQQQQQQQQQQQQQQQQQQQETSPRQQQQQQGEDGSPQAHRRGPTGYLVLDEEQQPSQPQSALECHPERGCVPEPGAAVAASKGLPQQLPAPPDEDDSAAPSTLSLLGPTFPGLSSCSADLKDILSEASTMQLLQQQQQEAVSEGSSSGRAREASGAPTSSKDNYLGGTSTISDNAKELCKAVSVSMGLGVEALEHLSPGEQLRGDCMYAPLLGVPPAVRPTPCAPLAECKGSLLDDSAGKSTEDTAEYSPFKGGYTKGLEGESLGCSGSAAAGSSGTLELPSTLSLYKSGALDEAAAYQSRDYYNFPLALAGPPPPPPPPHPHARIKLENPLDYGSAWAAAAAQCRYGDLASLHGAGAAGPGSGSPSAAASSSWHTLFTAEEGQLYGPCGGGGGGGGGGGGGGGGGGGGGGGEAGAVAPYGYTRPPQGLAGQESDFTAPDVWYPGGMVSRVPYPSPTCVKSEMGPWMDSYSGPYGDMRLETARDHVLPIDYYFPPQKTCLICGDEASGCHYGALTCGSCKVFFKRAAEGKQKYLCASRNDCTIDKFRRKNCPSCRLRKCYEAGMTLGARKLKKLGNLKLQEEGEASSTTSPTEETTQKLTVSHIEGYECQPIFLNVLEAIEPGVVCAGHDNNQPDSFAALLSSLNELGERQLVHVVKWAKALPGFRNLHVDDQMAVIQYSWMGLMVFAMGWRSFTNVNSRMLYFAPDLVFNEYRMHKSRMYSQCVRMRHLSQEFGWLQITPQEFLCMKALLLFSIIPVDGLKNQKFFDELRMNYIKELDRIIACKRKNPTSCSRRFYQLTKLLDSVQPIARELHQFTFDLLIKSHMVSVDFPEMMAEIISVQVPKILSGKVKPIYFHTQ
Protocol: (§1) FIGS. 2A-D. Oligobenzamide control of PC3 cell proliferation. (FIG. 2A) Structure of AR deletion mutants with numbered exons (FIG. 2B) Effect of D2 and T6 on basal (AI) and AD transcription. PC-3 cells were transiently transfected with ARE-luciferase along with plasmids expressing ARwt (FIG. 2B), ARv7 (FIG. 2C) or ARΔ1 (FIG. 2D). Cells were maintained for 48 h either without (EtOH) or with (1 nM DHT) and in the presence of 100 nM of peptidomimetic or volume equivalent of vehicle (DMSO) control. Luciferase assay results are shown. Data is normalized to the basal level of expression with AR wt in PC3 cells.
Since the WxxLF motif is also present in the truncated forms of the androgen receptor, the inventors then evaluated the ability of the peptidomimetics to block ARv7-driven transcription from a minimal ARE luciferase reporter. […] These findings were confirmed with a synthetic AR with point mutations in the WxxLF motif (data not shown).

ARv7 [1] = target: T2, ARv7 (Homo sapiens, UniProt P10275); assay: Rat probasin-luciferase reporter in M12 cells with ARv7; design: expressed in transfected cells; host or cells: M12 cells (A9); conditions: 100 nM peptidomimetic, 48 h
T2 sequence (P10275 1-644 isoform P10275-3): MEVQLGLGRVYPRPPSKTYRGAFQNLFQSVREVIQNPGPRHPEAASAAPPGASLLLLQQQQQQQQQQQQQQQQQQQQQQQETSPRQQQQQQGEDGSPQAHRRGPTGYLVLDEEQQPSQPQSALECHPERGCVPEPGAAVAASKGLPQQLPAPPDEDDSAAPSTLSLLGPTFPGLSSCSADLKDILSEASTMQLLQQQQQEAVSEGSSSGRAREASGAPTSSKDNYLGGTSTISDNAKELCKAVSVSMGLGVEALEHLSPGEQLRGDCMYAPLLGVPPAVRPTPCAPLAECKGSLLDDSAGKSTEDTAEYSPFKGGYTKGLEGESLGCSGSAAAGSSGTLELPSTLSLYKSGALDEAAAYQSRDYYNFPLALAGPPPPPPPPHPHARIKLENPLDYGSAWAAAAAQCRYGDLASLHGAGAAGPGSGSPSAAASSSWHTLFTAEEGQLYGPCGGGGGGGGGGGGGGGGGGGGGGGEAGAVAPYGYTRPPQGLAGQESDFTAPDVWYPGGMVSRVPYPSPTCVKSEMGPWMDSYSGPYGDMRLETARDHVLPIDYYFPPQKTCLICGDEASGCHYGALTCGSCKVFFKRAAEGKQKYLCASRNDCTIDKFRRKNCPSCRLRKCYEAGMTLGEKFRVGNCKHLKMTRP
Protocol: FIG. 5. Effect of T6 on basal level of ARE expression in M12 cells. M12 cells were transiently transfected with the rat probasin-luciferase reporter and either ARwt or ARv7. Cells were maintained for 48 h without (EtOH) and in the presence of 100 nM of peptidomimetic or volume equivalent of vehicle (DMSO) control or 10 μM of MDV3100. Luciferase assay results are shown.

ARv7 [2] = target: T2, ARv7; assay: ARE-luciferase reporter in PC-3 cells expressing ARv7; design: expressed in transfected cells; host or cells: PC-3 cells (A4); M12 cells (A9); conditions: 100 nM peptidomimetic, 48 h
Protocol: as §1
FIGS. 3A-B. Effect of T6 on basal transcription driven by splice variants. PC-3 cells were transiently transfected with ARE-luciferase along with plasmids expressing ARv7 (FIG. 3A) or AR567 (FIG. 3B). Cells were maintained for 48 h either without (EtOH) or with (1 nM DHT) and in the presence of 100 nM of peptidomimetic or volume equivalent of vehicle (DMSO) control. Luciferase assay results are shown. Data is normalized to the basal level of expression with AR wt in PC3 cells.
Since the WxxLF motif is also present in the truncated forms of the androgen receptor, the inventors then evaluated the ability of the peptidomimetics to block ARv7-driven transcription from a minimal ARE luciferase reporter. […]

## CC(C)COc1cc(C(N)=O)ccc1NC(=O)c1ccc(NC(=O)c2ccc([N+](=O)[O-])c(OCCc3ccc4ccccc4c3)c2)c(OCC(C)C)c1 [T6]
ARwt
  Ligand dependent transcription mediated by ARwt: able to suppress
ARv7 [1]
  expression of rat probasin reporter in M12 cells driven by ARv7: able to independently knock down
ARv7 [2]
  ARv7-mediated transcription: able to block; also recorded: decreases
